The text below walks through data of patent US20230250106A1, “COMPOUNDS AND COMPOSITIONS FOR TREATING CONDITIONS ASSOCIATED WITH STING ACTIVITY” (IFM Due, Inc., priority 2020, published 2023).

The test deals with STING pathway. The test can be described thus: STING reporter assay: luciferase reporter activity in THP1-Dual KO-IFNAR2 cells activated with 2'3'cGAMP. The note with it: Homo sapiens, 2'3'cGAMP 15 μM, 24 h, read-out: hSTING EC50. The format is cell-based. The method in brief: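 THP1-Dual KO-IFNAR2 cells were exposed to compounds at 0.0017-100 μM final and stimulated with 2′3′cGAMP (15 μM final) delivered with Lipofectamine 2000. After 24 h at 37 °C, secreted luciferase in the supernatant was read with QUANTI-Luc Plus, and EC50 values were calculated.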
`CC(O)c1cc(C(=O)Nc2c[nH]c3cc(F)c(F)cc23)ccc1C(F)(F)F` (centres unmarked) [Compound 276, N-(5,6-difluoro-1H-indol-3-yl)-3-(1-hydroxyethyl)-4-(trifluoromethyl)benzamide]: the EC50 lay in the range of 200 to 1000 nM.

For the compound `O=C(Nc1c[nH]c2cc(F)c(F)cc12)c1cccc(NCCCC(F)(F)F)n1` [Compound 277, N-(5,6-difluoro-1H-indol-3-yl)-6-((4,4,4-trifluorobutyl)amino)picolinamide], the half-maximal effective concentration (EC50) was 5000 to 100000 nM.

As to `Cc1cc(C(=O)Nc2c[nH]c3cc(F)c(F)cc23)cc(C)c1C1CCC(F)(F)CC1` [Compound 278, N-(5,6-difluoro-1H-indol-3-yl)-4-(4,4-difluorocyclohexyl)-3,5-dimethylbenzamide], the EC50 lay in the range of 1000 to 5000 nM.

In the case of `O=C(Nc1c[nH]c2cc(F)c(F)cc12)c1cc(CCO)cc(C(F)(F)F)c1` [Compound 279, N-(5,6-difluoro-1H-indol-3-yl)-3-(2-hydroxyethyl)-5-(trifluoromethyl)benzamide], the EC50 was 1000 to 5000 nM.

For the compound `O=C(Nc1c[nH]c2cc(F)c(F)cc12)c1ccc(C(F)(F)F)c(CCO)c1` [Compound 280, N-(5,6-difluoro-1H-indol-3-yl)-3-(2-hydroxyethyl)-4-(trifluoromethyl)benzamide], the concentration for a half-maximal effect (EC50) was 200 to 1000 nM.
